Experiments:
Assay in all cases: field test of gametocidal activity (sterilisation of anthers)
Assay type in all cases: in vivo
[1] = system: Sommerweizen Moskovskaya 35; conditions: V. Periode, 1%ige wäßrige Emulsion, 10 kg/ha; for Prozentsatz des Ansetzens der freier Bestäubung: control = 100
Excerpt: (§1) Die gametozide Aktivität der erfindungsgemäßen Sterilisationsmittel war in Feldversuch in verschiedenen bodenklimatischen Zonen mit Teilstücken von 10 m^2 Größe in drei-- bis viermaliger Wiederholung nachgewiesen. Jedes Sterilisationsmittel wurde mindestens 5 Jahre lang geprüft.
(§2) Die Entwicklung der Perioden der Organogenese wird zytologisch überwacht. Die Behandlung von Pflanzen mit dem Sterilisationsmittel erfolgt am Anfang der fünften Periode der Organogenese nach Kupermann.
(§3) Mit dem Ahrenschieben verwirklicht man die Isolierung von Hauptähren und anderen Stockwerken in Pergamentbeuteln. Bei Weizen und Tritikale werden Einzelisolatoren verwendet. Bei Roggen schließt man je 1 Ähre von 5 bis 7 verschiedenen nebeneinander befindlichen Pflanzen in einen gemeinsamen Isolator ein. Bei Hirse wird jede Rispe getrennt isoliert. Der Sterilitätsprozentsatz (X) für Weizen, Roggen, Tritikale und Hirse wird nach der Formel [formula]
(§4) Samen von unbehandelten Kontrollpflanzen ermittelt.
(§5) Die Kornzahl in nicht isolierten Ähren von Kontrollpflanzen wird bedingt für 100% Ansetzen bei freier Bestäubung angenommen.
(§6) Um zuverlässige Angaben zu erhalten, verwendet man 20 bis 25 Isolatoren jeder Wiederholung für Weizen und Tritikale, 10 bis 15 Isolatoren jeder Wiederholung für Roggen und Hirse.
Pflanzen des Sommerweizens Sorte Moskovskaya 35 werden in der V. Periode der Organogenese (nach Kupermann) mit einer 1%igen wäßrigen Emulsion von Kaliumsalz der 2-Methyl-3-zyklohexenkarbonsäure,2-Methyl-3-zyklohexenkarbon- äthylester, Phthalsäuredipropylester, Phthalsäurediallylester, Phthalsäurediisobutylester, Kaliumsalz der Benzoesäure behandelt. Die Emulsion enthält 0,01 Masse% Dimethylsulfoxid und 0,1 Masse% C12-C14-Kalziumalkylbenzolsulfonat. Der Verbrauch an Präparat beträgt 10 kg/ha. Als Kontrolle dienen Pflanzen, behandelt mit einem Verdünner ohne Sterilisationsmittel. […]
(§7) In allen Fällen dienen als Kontrolle Pflanzen, behandelt mit einem Verdünner ohne Sterilisationsmittel. Die Prüfergebnisse sind in der Tabelle 20 angeführt. […] Periode der Organogenese erhalten.

[2] = system: Tritikale der Sorte PRAG-109; conditions: V. Periode, 1%ige wäßrige Emulsion, 10 kg/ha; for Prozentsatz des Ansetzens der Körner bei freier Bestäubung: control = 100
Excerpt: as §1, §2, §3, §4, §5, §6
Pflanzen Tritikale der Sorte PRAG-109 werden in der V. Periode der Organogenese (nach Kupermann) mit einer 1%igen wäßrigen Emulsion von Phthalsäuredibutylester, Phthalsäurediäthylester, Phthalsäuredihexylester, Phthalsäurediisobutylester, Kaliumsalz der 2-Methyl-3-zyklohexenkarbon- säure, 2-Methyl-3-zyklohexenkarbonsäuremethylester behandelt. Die Emulsion enthält 0,01 Masse% Dimethylsulfoxid und 0,1 Masse% C12C14- Kalziumalkylbenzolsulfonat. Der Verbrauch an Präparat beträgt 10 kg/ha. Als Kontrolle dienen Pflanzen, behandelt mit einem Verdünner ohne Sterilisationsmittel. […]
as §7

[3] = system: tetraploidem Roggen Sorte Belta; conditions: V. Periode, 1%ige wäßrige Emulsion, 6 kg/ha; for Prozentsatz des Ansetzens bei freier Bestäubung: control = 100
Excerpt: as §1, §2, §3, §4, §5, §6
Pflanzen von tetraploidem Roggen Sorte Belta werden in der V. Periode der Organogenese (nach Kupermann) mit einer 1%igen wäßrigen Emulsion von Kaliumsalz der 2-Methyl-3-zy- klohexenkarbonsäure, 2-Methyl-3-zyklohexenkarbonsäuremethyl- ester, Phthalsäuredibutylester, Phthalsäuredihexylester, Phthalsäuredipropylester, Phthalsäurediallylester, Phthalsäurediisobutylester, Kaliumsalz der […] behandelt. Die Emulsion enthält 0,01 Masse% Dimethylsuloxid und 0,1 Masse% C12-C14-Kalziumalkylbenzolsulfonat. Der Verbrauch an Präparat beträgt 6 kg/ha. Als Kontrolle dienen Pflanzen behandelt mit einem Verdünner ohne Sterilisationsmittel.

[4] = system: diploidem Roggen Sorte Kharkovskaya 55; conditions: V. und VI. Periode, 1%ige wäßrige Emulsion, 6 kp/ha
Excerpt: as §1, §2, §3, §4, §5, §6
Pflanzen von diploidem Roggen Sorte Kharkovskaya 55 werden in der V. und VI. Periode der Organogenese (nach Kupermann) mit einer 1%igen wäßrigen Emulsion von Phthalsäuredibutylester, Phthalsäurediisobutylester, Phthalsäurediallylester, Phthalsäuredihexylester, 2-Methyl-3-zyklohexen- karbonsäuremethylester, Natriumsalz der 2-Methyl-3-zyklohex- enkarbonsäure behandelt. Die Emulsion enthält 0,01 Masse% Dimethylformamid und 0,1 Masse% C12C14-Kalziumalkylbenzolsulfonat.
Der Verbrauch an Präparat beträgt 6 kp/ha. Als Kontrolle dienen Pflanzen, benandelt mit einem Verdünner ohne Sterilisationsmittel.

[5] = system: diploidem Roggen Sorte Gibrid 1861/79; conditions: V. Periode, 1%ige wäßrige Emulsion, 6 kg/ha; for Prozentsatz des Ansetzens der Körner bei freier Bestäubung: control = 100
Excerpt: as §1, §2, §3, §4, §5, §6
Pflanzen von diploidem Roggen Sorte Gibrid 1861/79 werden in der V. Periode der Organogenese (nach Kupermann) mit einer 1%igen wäßrigen Emulsion von Phthalsäurediisobutylester, Kaliumsalz der 2-Methyl-3-zyklohexenkarbonsäure, 2--Methyl-3-zyklohexenkarbonsäuremethylester, Ammoniumsalz der 2-Methyl-3-zyklohexenkarbonsäure, Phthalsäurediallylester, Phthalsäuredihexylester, Ammoniumsalz der p-Hydroxybenzoesäure behandelt. Die Emulsion enthält 0,01 Masse% Dimethylsulfoxid und 0,1 Masse% C12-C14-Kalziumalkylbenzolsulfonat. Der Verbrauch an Präparat beträgt 6 kg/ha. Als Kontrolle dienen Pflanzen, behandelt mit einem Verdünner ohne Sterilisationsmittel.

For CC1C=CCCC1C(=O)[O-].[K+] (stereo not shown) [Beispiel 23, Kaliumsalz der 2-Methyl-3-zyklohexenkarbonsäure], the “Kornzahl der Ähre bei freier Bestäubung” value [1] was 30,8, the “Kornzahl der Ähre im Isolator” value [1] was 0,0 and the “Prozentsatz der Sterilität” value [1] was 100,0%. For the same compound, the “Prozentsatz des Ansetzens der freier Bestäubung” value [1] was 92,8%.
In the case of CCOC(=O)C1CCC=CC1C (stereo not shown) [Beispiel 24, 2-Methyl-3-zyklohexenkarbon-äthylester], the “Kornzahl der Ähre bei freier Bestäubung” value [1] is reported as 29,6, the “Kornzahl der Ähre im Isolator” value [1] is reported as 0,0 and the “Prozentsatz der Sterilität” value [1] is reported as 100,0%. For the same compound, the “Prozentsatz des Ansetzens der freier Bestäubung” value [1] was 89,2%.
CCCOC(=O)c1ccccc1C(=O)OCCC [Beispiel 26, Phthalsäuredipropylester] was tested, and the “Kornzahl der Ähre bei freier Bestäubung” value [1] was 28,6, the “Kornzahl der Ähre im Isolator” value [1] was 1,2 and the “Prozentsatz der Sterilität” value [1] was 95,6%. The “Prozentsatz des Ansetzens der freier Bestäubung” value [1] was 86,1%.
In the case of C=CCOC(=O)c1ccccc1C(=O)OCC=C [Beispiel 27, Phthalsäurediallylester], the “Kornzahl der Ähre bei freier Bestäubung” value [1] is reported as 31,1, the “Kornzahl der Ähre im Isolator” value [1] is reported as 0,3 and the “Prozentsatz der Sterilität” value [1] is reported as 98,9%. For the same compound, the “Prozentsatz des Ansetzens der freier Bestäubung” value [1] was 94,0%.
For CC(C)COC(=O)c1ccccc1C(=O)OCC(C)C [Beispiel 28, Phthalsäurediisobutylester], the “Kornzahl der Ähre bei freier Bestäubung” value [1] was 31,8, the “Kornzahl der Ähre im Isolator” value [1] was 0,0 and the “Prozentsatz der Sterilität” value [1] was 100,0%. The “Prozentsatz des Ansetzens der freier Bestäubung” value [1] was 95,8%.
O=C([O-])c1ccccc1.[K+] [Beispiel 29, Kaliumsalz der Benzoesäure] was tested, and the “Kornzahl der Ähre bei freier Bestäubung” value [1] was 33,0, the “Kornzahl der Ähre im Isolator” value [1] was 7,2 and the “Prozentsatz der Sterilität” value [1] was 73,8%. The “Prozentsatz des Ansetzens der freier Bestäubung” value [1] was 99,4%.
In the case of CCCCOC(=O)c1ccccc1C(=O)OCCCC [Beispiel 37, Phthalsäuredibutylester], the “Kornzahl der Ähre bei freier Bestäubung” value [2] is reported as 62,1, the “Kornzahl der Ähre im Isolator” value [2] is reported as 0,1 and the “Prozentsatz der Sterilität” value [2] is reported as 99,8%. For the same compound, the “Prozentsatz des Ansetzens der Körner bei freier Bestäubung” value [2] was 90,0%.
For CCOC(=O)c1ccccc1C(=O)OCC [Beispiel 38, Phthalsäurediäthylester], the “Kornzahl der Ähre bei freier Bestäubung” value [2] was 60,8, the “Kornzahl der Ähre im Isolator” value [2] was 0,8 and the “Prozentsatz der Sterilität” value [2] was 98,7%. For the same compound, the “Prozentsatz des Ansetzens der Körner bei freier Bestäubung” value [2] was 88,1%.
In the case of CCCCCCOC(=O)c1ccccc1C(=O)OCCCCCC [Beispiel 39, Phthalsäuredihexylester], the “Kornzahl der Ähre bei freier Bestäubung” value [2] is reported as 61,7, the “Kornzahl der Ähre im Isolator” value [2] is reported as 3,0 and the “Prozentsatz der Sterilität” value [2] is reported as 95,2%. For the same compound, the “Prozentsatz des Ansetzens der Körner bei freier Bestäubung” value [2] was 89,4%.
With CC1C=CCCC1C(=O)O (stereo not shown) [Beispiel 41, Kaliumsalz der 2-Methyl-3-zyklohexenkarbon-säure] the “Kornzahl der Ähre bei freier Bestäubung” value [2] was 65,1, the “Kornzahl der Ähre im Isolator” value [2] was 0,1 and the “Prozentsatz der Sterilität” value [2] was 99,8%. For the same compound, the “Prozentsatz des Ansetzens der Körner bei freier Bestäubung” value [2] was 94,3%.
For COC(=O)C1CCC=CC1C (stereo not shown) [Beispiel 42, 2-Methyl-3-zyklohexenkarbonsäuremethylester], the “Kornzahl der Ähre bei freier Bestäubung” value [2] was 64,7, the “Kornzahl der Ähre im Isolator” value [2] was 0,0 and the “Prozentsatz der Sterilität” value [2] was 100,0%. For the same compound, the “Prozentsatz des Ansetzens der Körner bei freier Bestäubung” value [2] was 93,8%.
In the case of COC(=O)C1CCC=CC1C (stereo not shown) [Beispiel 49, 2-Methyl-3-zyklohexenkarbonsäuremethyl-ester], the “Kornzahl der Ähre bei freier Bestäubung” value [3] is reported as 44,2, the “Kornzahl der Ähre im Isolator” value [3] is reported as 0,0 and the “Prozentsatz der Sterilität” value [3] is reported as 100,0%. For the same compound, the “Prozentsatz des Ansetzens bei freier Bestäubung” value [3] was 93,8%.
In the case of CCCCOC(=O)c1ccccc1C(=O)OCCCC [Beispiel 50, Phthalsäuredibutylester], the “Kornzahl der Ähre bei freier Bestäubung” value [3] is reported as 43,1, the “Kornzahl der Ähre im Isolator” value [3] is reported as 0,0 and the “Prozentsatz der Sterilität” value [3] is reported as 100,0%. The “Prozentsatz des Ansetzens bei freier Bestäubung” value [3] was 91,5%.
CCCCCCOC(=O)c1ccccc1C(=O)OCCCCCC [Beispiel 51, Phthalsäuredihexylester] was tested, and the “Kornzahl der Ähre bei freier Bestäubung” value [3] was 45,9, the “Kornzahl der Ähre im Isolator” value [3] was 0,2 and the “Prozentsatz der Sterilität” value [3] was 99,5%. For the same compound, the “Prozentsatz des Ansetzens bei freier Bestäubung” value [3] was 97,4%.
CCCOC(=O)c1ccccc1C(=O)OCCC [Beispiel 52, Phthalsäuredipropylester] was tested, and the “Kornzahl der Ähre bei freier Bestäubung” value [3] was 40,8, the “Kornzahl der Ähre im Isolator” value [3] was 0,0 and the “Prozentsatz der Sterilität” value [3] was 100,0%. The “Prozentsatz des Ansetzens bei freier Bestäubung” value [3] was 86,6%.
For C=CCOC(=O)c1ccccc1C(=O)OCC=C [Beispiel 53, Phthalsäurediallylester], the “Kornzahl der Ähre bei freier Bestäubung” value [3] was 41,6, the “Kornzahl der Ähre im Isolator” value [3] was 0,3 and the “Prozentsatz der Sterilität” value [3] was 99,7%. For the same compound, the “Prozentsatz des Ansetzens bei freier Bestäubung” value [3] was 88,3%.
In the case of CC(C)COC(=O)c1ccccc1C(=O)OCC(C)C [Beispiel 54, Phthalsäurediisobutylester], the “Kornzahl der Ähre bei freier Bestäubung” value [3] is reported as 40,4, the “Kornzahl der Ähre im Isolator” value [3] is reported as 0,0 and the “Prozentsatz der Sterilität” value [3] is reported as 100,0%. For the same compound, the “Prozentsatz des Ansetzens bei freier Bestäubung” value [3] was 85,8%.
CCCCOC(=O)c1ccccc1C(=O)OCCCC [Beispiel 68, Phthalsäuredibutylester] was tested, and the “Kornzahl der Ähre bei freier Bestäubung” value [4] was 48,6, the “Kornzahl der Ähre im Isolator” value [4] was 0,0 and the “Prozentsatz der Sterilität” value [4] was 100,0%. The “Prozentsatz des Ansetzens der Körner bei freier Bestäubung” value ([4]; control = 100) was 92,7%.
In the case of CC(C)COC(=O)c1ccccc1C(=O)OCC(C)C [Beispiel 82, Phthalsäurediisobutylester], the “Kornzahl der Ähre bei freier Bestäubung” value [5] is reported as 57,1, the “Kornzahl der Ähre im Isolator” value [5] is reported as 0,6 and the “Prozentsatz der Sterilität” value [5] is reported as 98,9%. For the same compound, the “Prozentsatz des Ansetzens der Körner bei freier Bestäubung” value [5] was 90,9%.
For CC1C=CCCC1C(=O)O (stereo not shown) [Beispiel 83, Kaliumsalz der 2-Methyl-3-zyklohexenkarbonsäure], the “Kornzahl der Ähre bei freier Bestäubung” value [5] was 56,7, the “Kornzahl der Ähre im Isolator” value [5] was 0,2 and the “Prozentsatz der Sterilität” value [5] was 99,7%. For the same compound, the “Prozentsatz des Ansetzens der Körner bei freier Bestäubung” value [5] was 90,2%.
COC(=O)C1CCC=CC1C (stereo not shown) [Beispiel 84, 2--Methyl-3-zyklohexenkarbonsäuremethylester] was tested, and the “Kornzahl der Ähre bei freier Bestäubung” value [5] was 51,2, the “Kornzahl der Ähre im Isolator” value [5] was 0,0 and the “Prozentsatz der Sterilität” value [5] was 100,0%. For the same compound, the “Prozentsatz des Ansetzens der Körner bei freier Bestäubung” value [5] was 81,5%.
CC1C=CCCC1C(=O)O (stereo not shown) [Beispiel 85, Ammoniumsalz der 2-Methyl-3-zyklohexenkarbonsäure] was tested, and the “Kornzahl der Ähre bei freier Bestäubung” value [5] was 57,8, the “Kornzahl der Ähre im Isolator” value [5] was 0,0 and the “Prozentsatz der Sterilität” value [5] was 100,0%. The “Prozentsatz des Ansetzens der Körner bei freier Bestäubung” value [5] was 92,0%.
For C=CCOC(=O)c1ccccc1C(=O)OCC=C [Beispiel 86, Phthalsäurediallylester], the “Kornzahl der Ähre bei freier Bestäubung” value [5] was 59,6, the “Kornzahl der Ähre im Isolator” value [5] was 0,0 and the “Prozentsatz der Sterilität” value [5] was 100,0%. The “Prozentsatz des Ansetzens der Körner bei freier Bestäubung” value [5] was 95,0%.
In the case of CCCCCCOC(=O)c1ccccc1C(=O)OCCCCCC [Beispiel 87, Phthalsäuredihexylester], the “Kornzahl der Ähre bei freier Bestäubung” value [5] is reported as 56,4, the “Kornzahl der Ähre im Isolator” value [5] is reported as 0,0 and the “Prozentsatz der Sterilität” value [5] is reported as 100,0%. The “Prozentsatz des Ansetzens der Körner bei freier Bestäubung” value [5] was 89,8%.
O=C(O)c1ccc(O)cc1 [Beispiel 88, Ammoniumsalz der p-Hydroxybenzoesäure] was tested, and the “Kornzahl der Ähre bei freier Bestäubung” value [5] was 68,9, the “Kornzahl der Ähre im Isolator” value [5] was 0,8 and the “Prozentsatz der Sterilität” value [5] was 98,5%. The “Prozentsatz des Ansetzens der Körner bei freier Bestäubung” value [5] was 109,7%.
